Tests used:
P2Y purinoceptor 2 [1] = target: T1, P2Y purinoceptor 2 (Homo sapiens, UniProt P41231); test: The compound was evaluated for antagonistic activity against P2Y purinoceptor 2 (P2Y2); assay type: functional
[2] = The compound was evaluated for antagonist activity against P2X purinoceptor; assay type: functional
P2Y purinoceptor 1 = P2Y purinoceptor 1 (Homo sapiens, UniProt P47900); test: Evaluated for agonist activity against phospholipase C coupled P2Y purinoceptor 1 (P2Y1) of human erythrocytes; assay type: functional
Sequence of P2Y purinoceptor 1 (P47900 whole entry): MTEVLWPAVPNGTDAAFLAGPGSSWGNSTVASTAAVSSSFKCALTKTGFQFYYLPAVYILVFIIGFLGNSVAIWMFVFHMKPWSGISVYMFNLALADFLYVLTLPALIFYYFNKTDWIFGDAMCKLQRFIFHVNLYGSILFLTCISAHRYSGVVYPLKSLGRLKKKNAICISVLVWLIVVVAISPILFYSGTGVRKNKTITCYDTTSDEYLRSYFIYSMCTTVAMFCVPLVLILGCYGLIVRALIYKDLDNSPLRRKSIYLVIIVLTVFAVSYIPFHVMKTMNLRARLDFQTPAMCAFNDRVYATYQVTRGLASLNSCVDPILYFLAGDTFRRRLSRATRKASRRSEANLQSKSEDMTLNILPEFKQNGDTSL

P2X purinoceptor 6 = P2X purinoceptor 6 (Rattus norvegicus, UniProt P51579); test: Antagonist activity against recombinant rat P2X purinoceptor 6 (P2X6 ); assay type: functional
Sequence of P2X purinoceptor 6 (P51579 whole entry): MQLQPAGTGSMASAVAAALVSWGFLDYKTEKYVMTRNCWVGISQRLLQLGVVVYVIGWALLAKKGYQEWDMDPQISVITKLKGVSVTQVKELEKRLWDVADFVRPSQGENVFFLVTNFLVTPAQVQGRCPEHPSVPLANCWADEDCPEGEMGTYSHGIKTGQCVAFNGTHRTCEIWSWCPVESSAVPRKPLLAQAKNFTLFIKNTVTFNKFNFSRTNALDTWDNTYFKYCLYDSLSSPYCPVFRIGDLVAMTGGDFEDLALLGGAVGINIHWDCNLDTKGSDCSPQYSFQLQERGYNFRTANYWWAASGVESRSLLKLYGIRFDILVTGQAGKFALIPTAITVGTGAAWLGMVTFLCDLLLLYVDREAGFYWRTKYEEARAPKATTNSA

P2X purinoceptor 5 = target: T2, P2X purinoceptor 5 (Rattus norvegicus, UniProt P51578); test: Antagonist activity against recombinant rat P2X purinoceptor 5 (P2X5); assay type: functional
T2 sequence (P51578 whole entry): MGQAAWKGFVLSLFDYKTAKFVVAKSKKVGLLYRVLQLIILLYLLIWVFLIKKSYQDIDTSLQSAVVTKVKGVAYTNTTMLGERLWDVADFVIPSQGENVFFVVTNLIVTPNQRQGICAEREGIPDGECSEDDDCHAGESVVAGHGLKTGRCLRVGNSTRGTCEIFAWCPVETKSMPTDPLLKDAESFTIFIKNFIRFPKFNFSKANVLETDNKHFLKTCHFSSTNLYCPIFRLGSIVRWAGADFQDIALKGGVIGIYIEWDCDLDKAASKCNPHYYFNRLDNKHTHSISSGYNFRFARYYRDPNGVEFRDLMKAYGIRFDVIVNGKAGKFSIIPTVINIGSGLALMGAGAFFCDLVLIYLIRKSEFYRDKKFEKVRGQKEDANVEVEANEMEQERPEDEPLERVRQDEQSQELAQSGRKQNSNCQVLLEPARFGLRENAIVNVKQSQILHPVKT

[3] = target: P2Y purinoceptor 1 (Rattus norvegicus) (UniProt P49651); test: Evaluated for agonist activity against phospholipase C coupled P2Y purinoceptor 1 (P2Y1) of rat erythrocytes
Sequence of P2Y purinoceptor 1 (Rattus norvegicus) (P49651 whole entry, looked up): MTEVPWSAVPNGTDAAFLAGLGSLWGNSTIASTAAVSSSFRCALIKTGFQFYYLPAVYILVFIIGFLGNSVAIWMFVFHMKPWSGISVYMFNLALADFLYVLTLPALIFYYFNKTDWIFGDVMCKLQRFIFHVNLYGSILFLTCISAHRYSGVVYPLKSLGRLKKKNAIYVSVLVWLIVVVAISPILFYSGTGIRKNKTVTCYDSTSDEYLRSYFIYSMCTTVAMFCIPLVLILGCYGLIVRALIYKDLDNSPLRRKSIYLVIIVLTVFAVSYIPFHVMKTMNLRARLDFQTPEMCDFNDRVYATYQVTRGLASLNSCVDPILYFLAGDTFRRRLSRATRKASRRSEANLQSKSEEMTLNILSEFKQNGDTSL

P2Y purinoceptor 6 = P2Y purinoceptor 6 (Homo sapiens, UniProt Q15077); test: The compound was evaluated for agonist activity against phospholipase C coupled recombinant human P2Y purinoceptor 6 (P2Y6); assay type: functional; details: concentration not given here
Sequence of P2Y purinoceptor 6 (Q15077 whole entry): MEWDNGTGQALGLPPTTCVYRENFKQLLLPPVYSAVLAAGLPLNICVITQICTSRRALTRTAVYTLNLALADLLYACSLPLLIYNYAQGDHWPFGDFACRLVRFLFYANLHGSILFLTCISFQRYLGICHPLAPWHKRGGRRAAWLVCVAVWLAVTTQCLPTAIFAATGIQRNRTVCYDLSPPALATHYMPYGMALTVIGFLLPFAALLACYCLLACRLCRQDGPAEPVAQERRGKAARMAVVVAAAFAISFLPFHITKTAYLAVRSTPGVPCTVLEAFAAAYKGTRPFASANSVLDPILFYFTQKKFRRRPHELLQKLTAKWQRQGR

P2X purinoceptor 1 [4] = target: T3, P2X purinoceptor 1 (Rattus norvegicus, UniProt P47824); test: The compound was evaluated for antagonist activity against recombinant rat P2X purinoceptor 1 (P2X1) at 1 uM, expressed in Xenopus oocytes; assay type: functional, cell-based, Oocyte
T3 sequence (P47824 whole entry): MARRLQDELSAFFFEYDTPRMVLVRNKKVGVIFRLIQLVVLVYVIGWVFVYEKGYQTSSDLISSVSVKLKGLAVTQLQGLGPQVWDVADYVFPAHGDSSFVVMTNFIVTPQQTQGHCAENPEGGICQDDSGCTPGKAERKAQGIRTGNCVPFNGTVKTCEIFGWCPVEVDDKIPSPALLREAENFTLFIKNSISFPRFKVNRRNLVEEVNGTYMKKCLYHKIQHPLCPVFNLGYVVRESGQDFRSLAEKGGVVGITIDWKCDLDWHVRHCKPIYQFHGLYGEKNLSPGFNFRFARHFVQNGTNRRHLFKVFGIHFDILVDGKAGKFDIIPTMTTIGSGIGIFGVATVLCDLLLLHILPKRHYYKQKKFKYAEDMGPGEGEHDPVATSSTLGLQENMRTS

P2Y purinoceptor 4 = P2Y purinoceptor 4 (Homo sapiens, UniProt P51582); test: The compound was evaluated for antagonist activity against phospholipase C coupled recombinant human P2Y purinoceptor 4 (P2Y4); assay type: functional
Sequence of P2Y purinoceptor 4 (P51582 whole entry): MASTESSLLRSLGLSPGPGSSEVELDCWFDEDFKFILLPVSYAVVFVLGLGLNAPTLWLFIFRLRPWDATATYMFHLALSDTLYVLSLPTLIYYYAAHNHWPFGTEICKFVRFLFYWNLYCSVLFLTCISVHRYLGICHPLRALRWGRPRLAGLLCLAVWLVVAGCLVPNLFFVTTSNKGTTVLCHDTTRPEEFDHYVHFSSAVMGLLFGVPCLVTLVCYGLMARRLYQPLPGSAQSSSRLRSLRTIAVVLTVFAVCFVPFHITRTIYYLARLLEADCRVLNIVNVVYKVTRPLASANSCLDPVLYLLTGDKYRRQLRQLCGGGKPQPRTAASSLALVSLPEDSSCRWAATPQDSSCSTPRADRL

P2Y purinoceptor 12 = P2Y purinoceptor 12 (Rattus norvegicus, UniProt Q9EPX4); test: Antagonist activity against phospholipase C coupled rat P2Y purinoceptor 12 (P2Y12); assay type: functional
Sequence of P2Y purinoceptor 12 (Q9EPX4 whole entry): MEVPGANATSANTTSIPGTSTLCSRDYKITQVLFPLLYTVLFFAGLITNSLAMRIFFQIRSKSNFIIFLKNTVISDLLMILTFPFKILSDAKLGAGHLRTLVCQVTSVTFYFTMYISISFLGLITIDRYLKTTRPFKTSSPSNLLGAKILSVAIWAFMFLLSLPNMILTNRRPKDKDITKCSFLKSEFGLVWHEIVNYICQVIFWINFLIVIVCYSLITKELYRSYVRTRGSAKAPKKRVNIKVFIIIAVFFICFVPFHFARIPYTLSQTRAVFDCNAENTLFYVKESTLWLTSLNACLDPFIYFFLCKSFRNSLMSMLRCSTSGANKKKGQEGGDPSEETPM

P2X purinoceptor 2 = target: T4, P2X purinoceptor 2 (Rattus norvegicus, UniProt P49653); test: The compound was evaluated for antagonist activity against recombinant rat receptor P2X purinoceptor 2 (P2X2) at 30 uM, expressed in Xenopus oocytes; assay type: functional, cell-based, Oocyte
T4 sequence (P49653 whole entry): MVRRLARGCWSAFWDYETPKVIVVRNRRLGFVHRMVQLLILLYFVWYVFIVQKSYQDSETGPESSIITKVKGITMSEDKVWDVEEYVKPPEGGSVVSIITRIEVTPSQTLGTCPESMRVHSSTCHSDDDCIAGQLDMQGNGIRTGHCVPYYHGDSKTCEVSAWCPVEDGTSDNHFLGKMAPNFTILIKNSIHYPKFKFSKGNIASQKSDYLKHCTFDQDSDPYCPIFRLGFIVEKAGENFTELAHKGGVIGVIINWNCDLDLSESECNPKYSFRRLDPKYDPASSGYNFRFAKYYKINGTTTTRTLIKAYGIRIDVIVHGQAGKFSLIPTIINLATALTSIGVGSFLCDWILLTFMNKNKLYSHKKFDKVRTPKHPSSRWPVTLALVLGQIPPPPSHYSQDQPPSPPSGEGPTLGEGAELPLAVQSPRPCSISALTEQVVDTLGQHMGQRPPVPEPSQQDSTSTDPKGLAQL

P2X purinoceptor 4 = target: T5, P2X purinoceptor 4 (Rattus norvegicus, UniProt P51577); test: Antagonist activity against recombinant rat P2X purinoceptor 4 (P2X4) at 3 uM, expressed in Xenopus oocytes; assay type: functional, cell-based, Oocyte
T5 sequence (P51577 whole entry): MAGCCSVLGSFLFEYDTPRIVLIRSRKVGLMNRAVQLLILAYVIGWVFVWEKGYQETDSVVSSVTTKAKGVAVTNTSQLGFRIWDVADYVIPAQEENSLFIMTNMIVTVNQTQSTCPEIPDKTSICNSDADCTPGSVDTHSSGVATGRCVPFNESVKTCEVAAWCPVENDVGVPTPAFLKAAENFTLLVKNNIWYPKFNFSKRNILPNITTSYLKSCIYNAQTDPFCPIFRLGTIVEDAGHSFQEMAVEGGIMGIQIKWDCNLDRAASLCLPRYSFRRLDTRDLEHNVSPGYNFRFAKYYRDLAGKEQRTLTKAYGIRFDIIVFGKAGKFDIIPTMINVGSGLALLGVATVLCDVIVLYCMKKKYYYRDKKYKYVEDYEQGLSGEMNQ

P2X purinoceptor 7 = P2X purinoceptor 7 (Rattus norvegicus, UniProt Q64663); test: The compound was evaluated for antagonist activity against recombinant rat P2X purinoceptor 7 (P2X7); assay type: functional
Sequence of P2X purinoceptor 7 (Q64663 whole entry): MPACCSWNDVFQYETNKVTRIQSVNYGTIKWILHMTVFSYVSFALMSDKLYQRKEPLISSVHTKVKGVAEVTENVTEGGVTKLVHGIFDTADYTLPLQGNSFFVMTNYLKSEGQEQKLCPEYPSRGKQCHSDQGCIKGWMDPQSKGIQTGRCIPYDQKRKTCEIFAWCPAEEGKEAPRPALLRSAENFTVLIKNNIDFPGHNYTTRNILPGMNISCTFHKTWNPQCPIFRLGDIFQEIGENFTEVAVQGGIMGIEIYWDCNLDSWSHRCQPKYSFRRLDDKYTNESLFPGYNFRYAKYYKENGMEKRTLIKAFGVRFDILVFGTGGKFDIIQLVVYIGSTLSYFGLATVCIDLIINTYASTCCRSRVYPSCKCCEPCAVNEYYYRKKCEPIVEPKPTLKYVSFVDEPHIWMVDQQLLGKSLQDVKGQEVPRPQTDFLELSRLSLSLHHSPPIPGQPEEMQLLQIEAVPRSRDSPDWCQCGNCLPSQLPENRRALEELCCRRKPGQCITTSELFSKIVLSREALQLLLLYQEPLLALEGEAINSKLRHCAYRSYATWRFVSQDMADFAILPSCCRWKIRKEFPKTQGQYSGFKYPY

P2Y purinoceptor 2 [5] = target: T1, P2Y purinoceptor 2; test: Evaluated for agonist activity against phospholipase C coupled recombinant human P2Y purinoceptor 2 (P2Y2); assay type: functional
[6] = target: P2Y purinoceptor 1 (Cavia porcellus); test: The compound was evaluated for antagonistic activity at P2Y purinoceptor 1 (P2Y1) from guinea pig taenia coli
P2X purinoceptor 1 [7] = target: T6, P2X purinoceptor 1 (Rattus norvegicus, UniProt P47824); test: The compound was evaluated for antagonist activity against P2X purinoceptor 1 (P2X1) receptor from rat vas deferens; assay type: functional
P2X purinoceptor 1 [8] = target: T6, P2X purinoceptor 1; test: Dissociation constant of the compound at P2X purinoceptor 1 (P2X1) from rat vas deferens was reported

T1 sequence (P41231 whole entry): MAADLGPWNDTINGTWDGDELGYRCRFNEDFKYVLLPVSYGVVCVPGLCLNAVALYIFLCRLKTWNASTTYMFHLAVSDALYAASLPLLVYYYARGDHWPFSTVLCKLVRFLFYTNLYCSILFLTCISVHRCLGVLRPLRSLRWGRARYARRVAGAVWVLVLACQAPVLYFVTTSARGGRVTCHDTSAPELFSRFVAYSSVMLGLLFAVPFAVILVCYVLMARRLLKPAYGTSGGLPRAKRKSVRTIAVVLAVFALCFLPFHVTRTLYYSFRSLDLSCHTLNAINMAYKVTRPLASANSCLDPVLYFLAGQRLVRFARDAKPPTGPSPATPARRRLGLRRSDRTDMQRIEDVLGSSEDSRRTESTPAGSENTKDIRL

Cc1cc(-c2ccc(/N=N/c3c(S(=O)(=O)O)cc4cc(S(=O)(=O)O)cc(N)c4c3O)c(C)c2)ccc1/N=N/c1c(S(=O)(=O)O)cc2cc(S(=O)(=O)O)cc(N)c2c1O [TRYPAN BLUE]
IC50 (P2Y purinoceptor 2 [1]): 171 µM
IC50 [2]: 386 µM

Cc1nc(/N=N/c2ccc(S(=O)(=O)O)cc2S(=O)(=O)O)c(COP(=O)(O)O)c(C=O)c1O
EC50 (P2Y purinoceptor 1): 1 µM
EC50 (P2X purinoceptor 6): > 100 µM
EC50 (P2X purinoceptor 5): 2.6 µM
EC50 [3]: 18.2 µM
inhibition (P2Y purinoceptor 6): 69%
EC50 (P2X purinoceptor 1 [4]): 0.099 µM
EC50 (P2Y purinoceptor 4): > 10 µM
EC50 (P2Y purinoceptor 12): > 100 µM
EC50 (P2X purinoceptor 2): 12 µM
EC50 (P2X purinoceptor 4): > 10 µM
EC50 (P2X purinoceptor 7): 62 µM
EC50 (P2Y purinoceptor 2 [5]): > 10 µM

Cc1nc(/N=N/c2ccc(C(=O)O)c(Cl)c2)c(COP(=O)(O)O)c(C=O)c1O
Kd [6]: 2.9 µM
IC50 (P2X purinoceptor 1 [7]): 9.6 µM
Kd (P2X purinoceptor 1 [8]): 1.6 µM

Source: ChEMBL document CHEMBL1135773, “Purine and pyrimidine (P2) receptors as drug targets” (J Med Chem, 2002)
